Source: PubChem BioAssay AID248 (DTP/NCI, 2004)
Several values for one entry are separate records, joined by “and”; a condition that tells them apart may be missing. Equal entries are not always repeated. Toxic doses and inconclusive results are not listed. No stated cut-off is given here; in the data, active means T/C of 150% or more; inactive means T/C below 125%.

Tested on: L1210 leukemia ip in BDF1 mice, survival T/C
Experiment: NCI In Vivo Anticancer Drug Screen. Data for tumor model L1210 Leukemia (intraperitoneal) in B6D2F1 (BDF1) mice
Settings: endpoint: mean survival time, higher = longer survival
Summary of the method: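 Transplantable tumor model; survival measured in treated vs vehicle control mice. Value = treated/control.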

[1] = dose: 50.0 mg/kg/injection, schedule: Q01DX009 (ip), vehicle: saline with Tween-80
[2] = dose: 100.0 mg/kg/injection, schedule: Q01DX009 (ip), vehicle: saline with Tween-80
[3] = dose: 200.0 mg/kg/injection, schedule: Q01DX009 (ip), vehicle: saline with Tween-80
[4] = dose: 100.0 mg/kg/injection, schedule: Q04DX003 (ip), vehicle: saline with Tween-80
[5] = dose: 200.0 mg/kg/injection, schedule: Q04DX003 (ip), vehicle: saline with Tween-80
[6] = dose: 400.0 mg/kg/injection, schedule: Q04DX003 (ip), vehicle: saline with Tween-80
[7] = dose: 100.0 mg/kg/injection, schedule: Q01DX009 (ip), vehicle: Klucel (hydroxypropylcellulose) (HPC)
[8] = dose: 200.0 mg/kg/injection, schedule: Q01DX009 (ip), vehicle: Klucel (hydroxypropylcellulose) (HPC)
[9] = dose: 100.0 mg/kg/injection, schedule: Q01DX001 (ip), vehicle: other
[10] = dose: 200.0 mg/kg/injection, schedule: Q01DX001 (ip), vehicle: other
[11] = dose: 100.0 mg/kg/injection, schedule: Q01DX001 (ip), vehicle: saline
[12] = dose: 200.0 mg/kg/injection, schedule: Q01DX001 (ip), vehicle: saline
[13] = dose: 400.0 mg/kg/injection, schedule: Q01DX001 (ip), vehicle: saline
[14] = dose: 50.0 mg/kg/injection, schedule: Q01DX001 (ip), vehicle: saline
[15] = dose: 400.0 mg/kg/injection, schedule: Q01DX009 (ip), vehicle: Klucel (hydroxypropylcellulose) (HPC)

Measured: T/C

c1ccc2c[n+]3cc4ccccc4cc3cc2c1
inactive: dose: 6.25 mg/kg/injection, schedule: Q01DX009 (ip), vehicle: saline 101 % of control | dose: 12.5 mg/kg/injection, schedule: Q01DX009 (ip), vehicle: saline 104 % of control | dose: 25.0 mg/kg/injection, schedule: Q01DX009 (ip), vehicle: saline 104 % of control | dose: 35.0 mg/kg/injection, schedule: Q01DX009 (ip), vehicle: saline 95 % of control

CC(C)C#C/C=C/C(C)C
inactive: [1] 95 % of control | [2] 95 % of control | [3] 103 % of control

O=CC(O)C(Cl)C(Cl)C(O)CCl (centres undefined)
inactive: dose: 100.0 mg/kg/injection, schedule: Q04DX002 (ip), vehicle: saline with Tween-80 98 % of control | dose: 200.0 mg/kg/injection, schedule: Q04DX002 (ip), vehicle: saline with Tween-80 98 % of control | dose: 400.0 mg/kg/injection, schedule: Q04DX002 (ip), vehicle: saline with Tween-80 102 % of control

c1ccc2nc(C3CO3)cnc2c1 (centres undefined)
inactive: [4] 100 % of control | [5] 91 % of control | [6] 99 % of control

O=P(Nc1ccccc1)(Nc1ccccc1)Nc1ccccc1
inactive: dose: 50.0 mg/kg/injection, schedule: Q04DX002 (ip), vehicle: gum acacia 95 % of control | dose: 100.0 mg/kg/injection, schedule: Q01DX009 (ip), vehicle: gum acacia 100 % of control | dose: 100.0 mg/kg/injection, schedule: Q04DX002 (ip), vehicle: gum acacia 95 % of control | dose: 200.0 mg/kg/injection, schedule: Q01DX009 (ip), vehicle: gum acacia 97 % of control | dose: 200.0 mg/kg/injection, schedule: Q04DX002 (ip), vehicle: gum acacia 92 % of control | dose: 400.0 mg/kg/injection, schedule: Q01DX009 (ip), vehicle: gum acacia 89 % of control

Nc1nc(SCCc2ccccc2)c2[nH]cnc2n1
inactive: dose: 125.0 mg/kg/injection, schedule: Q01DX Z (ip), vehicle: carboxymethylcellulose (CMC) 97 % of control | dose: 200.0 mg/kg/injection, schedule: Q01DX Z (ip), vehicle: carboxymethylcellulose (CMC) 123 % of control | dose: 250.0 mg/kg/injection, schedule: Q01DX Z (ip), vehicle: carboxymethylcellulose (CMC) 100 % of control | dose: 500.0 mg/kg/injection, schedule: Q01DX Z (ip), vehicle: carboxymethylcellulose (CMC) 106 % of control | dose: 1000.0 mg/kg/injection, schedule: Q01DX Z (ip), vehicle: carboxymethylcellulose (CMC) 93 % of control

CCCCCCCCCCCCCCCCNc1cc(C)cc(C)c1
inactive: dose: 100.0 mg/kg/injection, schedule: Q04DX003 (ip), vehicle: Klucel (hydroxypropylcellulose) (HPC) 96 % of control | dose: 200.0 mg/kg/injection, schedule: Q04DX003 (ip), vehicle: Klucel (hydroxypropylcellulose) (HPC) 95 % of control | dose: 400.0 mg/kg/injection, schedule: Q04DX003 (ip), vehicle: Klucel (hydroxypropylcellulose) (HPC) 101 % of control

O=P(NC12CC3CC(CC(C3)C1)C2)(NC12CC3CC(CC(C3)C1)C2)N(CCCl)CCCl
inactive: dose: 50.0 mg/kg/injection, schedule: Q01DX009 (ip), vehicle: Klucel (hydroxypropylcellulose) (HPC) 112 % of control | dose: 100.0 mg/kg/injection, schedule: Q01DX001 (ip), vehicle: Klucel (hydroxypropylcellulose) (HPC) 105 % of control | [7] 104 % of control | dose: 200.0 mg/kg/injection, schedule: Q01DX001 (ip), vehicle: Klucel (hydroxypropylcellulose) (HPC) 94 % of control | [8] 89 % of control | dose: 400.0 mg/kg/injection, schedule: Q01DX001 (ip), vehicle: Klucel (hydroxypropylcellulose) (HPC) 98 % of control

Nc1c(Br)cc(Br)cc1C(=O)O
inactive: [9] 97 % of control | [10] 97 % of control

Cc1cn(C2OC(CO)C(O)C(O)C2O)c(=O)[nH]c1=O (centres undefined)
inactive: [11] 97 % of control | [12] 97 % of control | [13] 94 % of control

S=C=Nc1cccc2c(N=C=S)cccc12
inactive: [14] 98 % of control | [11] 98 % of control | [12] 110 % of control | [13] 119 % of control

CC1=CC(=O)C(C(O)(C(F)(F)Cl)C(F)(F)Cl)C(C)(C)C1 (centres undefined)
inactive: [7] 98 % of control | [4] 102 % of control | [8] 103 % of control | [5] 96 % of control | [15] 97 % of control | [6] 109 % of control

CCOC(=O)c1cnc(C)nc1C
inactive: dose: 100.0 mg/kg/injection, schedule: Q01DX009 (ip), vehicle: saline 95 % of control | dose: 100.0 mg/kg/injection, schedule: Q04DX003 (ip), vehicle: saline 103 % of control | dose: 200.0 mg/kg/injection, schedule: Q01DX009 (ip), vehicle: saline 100 % of control | dose: 200.0 mg/kg/injection, schedule: Q04DX003 (ip), vehicle: saline 98 % of control | dose: 400.0 mg/kg/injection, schedule: Q01DX009 (ip), vehicle: saline 95 % of control | dose: 400.0 mg/kg/injection, schedule: Q04DX003 (ip), vehicle: saline 98 % of control

O=[N+]([O-])c1ccc(N/N=C/CCl)c([N+](=O)[O-])c1
inactive: dose: 6.25 mg/kg/injection, schedule: Q01DX009 (ip), vehicle: saline with Tween-80 94 % of control and 98 % of control | dose: 6.25 mg/kg/injection, schedule: Q04DX003 (ip), vehicle: saline with Tween-80 99 % of control | dose: 12.5 mg/kg/injection, schedule: Q01DX009 (ip), vehicle: saline with Tween-80 102 % of control and 105 % of control | dose: 12.5 mg/kg/injection, schedule: Q04DX003 (ip), vehicle: saline with Tween-80 87 % of control | dose: 25.0 mg/kg/injection, schedule: Q01DX009 (ip), vehicle: saline with Tween-80 98 % of control and 103 % of control | dose: 25.0 mg/kg/injection, schedule: Q04DX003 (ip), vehicle: saline with Tween-80 91 % of control

COC(=O)c1ccccc1NC(=O)c1c(-c2ccccc2Cl)noc1C
inactive: [7] 99 % of control | [8] 94 % of control | [15] 98 % of control

CC(=O)OCCc1ccc2c(c1)OCO2
inactive: dose: 100.0 mg/kg/injection, schedule: Q04DX002 (ip), vehicle: Klucel (hydroxypropylcellulose) (HPC) 97 % of control | dose: 200.0 mg/kg/injection, schedule: Q04DX002 (ip), vehicle: Klucel (hydroxypropylcellulose) (HPC) 112 % of control | dose: 400.0 mg/kg/injection, schedule: Q04DX002 (ip), vehicle: Klucel (hydroxypropylcellulose) (HPC) 115 % of control

COC(=O)c1cccc2c1-c1ccccc1C2=O
inactive: [9] 92 % of control | [10] 88 % of control | dose: 400.0 mg/kg/injection, schedule: Q01DX001 (ip), vehicle: other 97 % of control

O=C1c2ccccc2C(=O)C1N=Nc1ccccc1
inactive: [14] 102 % of control | [11] 100 % of control | [12] 94 % of control | [13] 96 % of control

COc1c2c(c(C(=O)O)c3ccncc13)CC(C)(C)C2
inactive: [1] 102 % of control | [2] 98 % of control | [3] 101 % of control

CCCCS(=O)(=O)OCCCCOS(=O)(=O)CCCC
inactive: dose: 240.0 mg/kg/injection, schedule: Q01DX Z (ip), vehicle: saline 100 % of control | dose: 360.0 mg/kg/injection, schedule: Q01DX Z (ip), vehicle: saline 115 % of control | dose: 810.0 mg/kg/injection, schedule: Q01DX Z (ip), vehicle: saline 90 % of control
